Reference: US20260183434A1, “NEW SENESCENCE TRACER GENERATION” (Eberhard Karls Universitaet Tuebingen Medizinische Fakultaet, priority 2023, published 2026)
Where “and” joins values, the source holds several entries; their conditions need not be identical. Equal values may be shown once. Values belong to the compound of their own block, whether it stands above or below them.

Legend:
CT26 = test: In vitro tracer uptake (gamma counter) in wild type CT26 control cells; assay type: cell-based; conditions: 1×10^6 cells, 0.74 MBq tracer, 40 min, 37° C.
Procedure: (§1) Cells were cultured in a humidified incubator (Binder, Tuttlingen, Germany) at 37° C. and 5% CO2. Fetal bovine serum (FBS, Sigma of Merck) was heat-inactivated for 30 min at 57° C. for cell culture supplementation. For in vitro uptake experiments, the cells were rinsed with DPBS, harvested with a cell scraper and finally centrifuged. The cell pellet was then washed with DPPS and resuspended in DPBS, before being counted. A suspension of 1×10^6 cells in 1 ml DPBS was incubated with 0.74 MBq of tracer at 37° C. and 5% CO2 for 40 min. After the designated incubation time, the suspension was centrifuged. The cell pellet was transferred into a fresh gamma counter tube (Sarstedt), washed twice with 1 ml DPBS and resuspended in 1 ml DPBS. The uptake was measured with a 2480 Wizard^2 automated gamma counter (Perkin Elmer).
(§2) In vitro experiments were performed by uptake quantification in a gamma-counter. In all experiments, 1 million of each of the cell lines were treated with 20 μCi of tracer. After incubation time of 40 minutes, the cells were centrifuged, the supernatant discarded and the cell pellet resuspended in fresh PBS. The samples were then measured in biodistribution tubes in a gamma counter. The tracers were tested first using a β-galactosidase (LacZ) overexpression model of a colon carcinoma cell line (CT26-CL25) and the wild type (CT26) as control (FIG. 2A). Next, the tracers were tested in a senescent cell model: a liver carcinoma cell line (Amp19) treated with ribosomal checkpoint inhibitor (RCI) (FIGS. 2B and 2C).

CT26.CL25 (LacZ+) = test: In vitro tracer uptake (gamma counter) in β-galactosidase (LacZ) overexpressing cells; assay type: cell-based; conditions: β-galactosidase (LacZ) overexpression model; 1×10^6 cells, 0.74 MBq tracer, 40 min, 37° C.
Procedure: as §1, §2

Amp19 = test: In vitro tracer uptake (gamma counter) in Amp19 senescence cell model; assay type: cell-based; conditions: 1×10^6 cells, 0.74 MBq tracer, 40 min; for Uptake in % ID per million cells, Amp19 (cntrl): control Amp19 cells; for Uptake in % ID per million cells, Amp19 (sen): senescent Amp19 cells (treated with RCI)
Procedure: as §1, §2

HCT116 = test: In vitro tracer uptake (gamma counter) in HCT116 senescence cell model; assay type: cell-based; conditions: 1×10^6 cells, 0.74 MBq tracer, 40 min; for Uptake in % ID per million cells, HCT116 (cntrl): control HCT116 cells; for Uptake in % ID per million cells, HCT116 (sen): senescent HCT116 cells
Procedure: as §1

Amp19 tumors [1] = test: Dynamic PET scans of Amp19 tumor bearing mice; assay type: in vivo
Procedure: (§3) Animal procedures were approved by the local authorities (Regierungspraesidium Tuebingen, Tuebingen, Germany) and conducted according to the German Animal Welfare Act. The mice used were between 6 and 7 weeks of age. Tumors were implanted by injecting 0.5×10^6 cells s.c. into the right flank of SCID beige mice. When most tumors reached 100 mm^3 (˜3 weeks post inoculation), the animals were randomized into two groups. The groups received 25 mg/kg/d CX-5461 (AdooQ BioScience, Irvine, CA, USA) or vehicle [50 mM monosodium phosphate (Sigma of Merck KGaA, Darmstadt, Germany), pH 4.5]i.p. for five consecutive days.
Anatomical imaging was conducted on a 7 Tesla small animal MRI scanner with a rat whole body coil and Paravision® software (Bruker, Billerica, MA, USA). The animals were then transferred to the PET scanner without moving the animal to ensure co-registration. The animals received 12±1 MBq tracer (determined by a CRC 15-R dose calibrator) was injected through a tail vein catheter, which was subsequently flushed with 50 μl heparinized saline solution. The transmission scan using an external ^57Co point source was performed for the attenuation correction. […]
The list mode raw file was histogrammed and reconstructed with OSEM3D/SP-MAP algorithm implemented in Inveon Acquisition Workplace. […] The tracer uptake was calculated as the percentage of the injected dose per cubic centimeter (% ID/cc). […]

Amp19 tumors [2] = test: Ex vivo autoradiography of Amp19 tumors after tracer administration; assay type: in vivo, mice; conditions: cx-treated (senescent) vs non-senescent control Amp19 tumors, FIG. 5
Procedure: as §3
For autoradiography, the tumors were embedded in the optimal cutting temperature compound (Tissue-Tek® O.C.T., Sakura, Alphen aan den Rijn, Netherlands) and frozen at −20° C. in the cryotome (Leica, Wetzlar, Germany). Cryosections (20 μm) were then attached to microscope slides (SuperFrost® Plus, R. Langenbrinck, Emmendingen, Germany). The slides were exposed overnight to a phosphor screen (Molecular Dynamics of GE Healthcare). The screen was then scanned by the phosphorimager (Storm 840, Amersham of GE Healthcare). The signal intensities of sections were normalized to each other based on decay corrected animal receiving dose with the open-source software ImageJ (National Institute of Health, Bethesda, MD, USA). […]

Washout of tumor uptake (dynamic PET) (Amp19 tumors [1]; treated and untreated Amp19 tumors, uptake stable, reaches a maximum and plateaus): no observable washout effect
Structure (SMILES): OC[C@H]1O[C@@H](Oc2cc([18F])ccc2COc2c(F)c(F)cc(F)c2F)[C@H](O)[C@@H](O)[C@H]1O [[^18F]TFPBGal]
Uptake in % ID per million cells, CT26 (CT26): 2.444 % ID per million cells | Uptake in % ID per million cells, CT26.CL25 (LacZ+) (CT26.CL25 (LacZ+)): 7.514 % ID per million cells | Uptake in % ID per million cells, Amp19 (cntrl) (Amp19): 3.641 % ID per million cells | Uptake in % ID per million cells, Amp19 (sen) (Amp19): 0.3992 % ID per million cells | Uptake in % ID per million cells, HCT116 (cntrl) (HCT116): 4.745 % ID per million cells | Uptake in % ID per million cells, HCT116 (sen) (HCT116): 2.761 % ID per million cells | Dynamic uptake in tumors (PET) (Amp19 tumors [1]; CX-treated (senescent) vs untreated control Amp19 tumors, tracer i.v., FIG. 4): higher in CX-treated (senescent) tumors compared to untreated controls at all time points

Structure (SMILES): OC[C@H]1O[C@@H](Oc2ccc(NCCC[18F])cc2COc2c(F)c(F)cc(F)c2F)[C@H](O)[C@@H](O)[C@H]1O [[^18F]ADTFPBGal]
Uptake in % ID per million cells, CT26 (CT26): 1.403 % ID per million cells | Uptake in % ID per million cells, CT26.CL25 (LacZ+) (CT26.CL25 (LacZ+)): 4.515 % ID per million cells | Uptake in % ID per million cells, Amp19 (cntrl) (Amp19): 1.085 % ID per million cells | Uptake in % ID per million cells, Amp19 (sen) (Amp19): 0.205 % ID per million cells | Uptake in % ID per million cells, HCT116 (cntrl) (HCT116): 1.564 % ID per million cells | Uptake in % ID per million cells, HCT116 (sen) (HCT116): 0.6573 % ID per million cells

Structure (SMILES): O=[N+]([O-])c1ccc(OCc2cc(NCCC[18F])ccc2O[C@@H]2O[C@H](CO)[C@H](O)[C@H](O)[C@H]2O)cc1 [[^18F]NO2BGal]
Uptake in % ID per million cells, CT26 (CT26): 1.492 % ID per million cells | Uptake in % ID per million cells, CT26.CL25 (LacZ+) (CT26.CL25 (LacZ+)): 0.9792 % ID per million cells | Uptake in % ID per million cells, Amp19 (cntrl) (Amp19): 1.286 % ID per million cells | Uptake in % ID per million cells, Amp19 (sen) (Amp19): 0.3245 % ID per million cells | Uptake in % ID per million cells, HCT116 (cntrl) (HCT116): 0.5052 % ID per million cells | Uptake in % ID per million cells, HCT116 (sen) (HCT116): 0.3026 % ID per million cells

Structure (SMILES): OC[C@H]1O[C@@H](Oc2cccnc2[18F])[C@H](O)[C@@H](O)[C@H]1O [[^18F]FPyGal, reference compound]
Uptake in % ID per million cells, CT26.CL25 (LacZ+) (CT26.CL25 (LacZ+)): 0.5769 % ID per million cells and 1.117 % ID per million cells | Uptake in % ID per million cells, Amp19 (cntrl) (Amp19): 0.2657 % ID per million cells | Uptake in % ID per million cells, Amp19 (sen) (Amp19): 0.0639 % ID per million cells | Uptake in % ID per million cells, HCT116 (cntrl) (HCT116): 0.3438 % ID per million cells | Uptake in % ID per million cells, HCT116 (sen) (HCT116): 0.1998 % ID per million cells

Structure (SMILES): OC[C@H]1O[C@@H](Oc2ccc(N3CCN(CCC[18F])CC3)cc2)[C@H](O)[C@@H](O)[C@H]1O [[^18F]PIPGal]
Uptake in % ID per million cells, CT26 (CT26): 0.3131 % ID per million cells | Uptake in % ID per million cells, CT26.CL25 (LacZ+) (CT26.CL25 (LacZ+)): 0.06898 % ID per million cells | Uptake in % ID per million cells, Amp19 (cntrl) (Amp19): 0.3165 % ID per million cells | Uptake in % ID per million cells, Amp19 (sen) (Amp19): 0.04018 % ID per million cells | Uptake in % ID per million cells, HCT116 (cntrl) (HCT116): 0.1219 % ID per million cells | Uptake in % ID per million cells, HCT116 (sen) (HCT116): 0.09843 % ID per million cells | Autoradiography signal accumulation in tumors (Amp19 tumors [2]): High signal accumulation is observed in the cx-treated (senescent) tumors compared to the non-senescent controls
